Read-outs that look alike come from different tables or passages of the source. Positions of bridges follow the written chain, without caps; N, C: chain ends. Non-standard residues stand in square brackets, D forms with d. Residues, ends and D or L forms follow the SMILES beside them. R8 = C=CCCCCCC[C@@](C)(N)C(=O)O; S5 = C=CCCC[C@](C)(N)C(=O)O
Legend:
[1] = system: hDM2-overexpressing SJSA-1 cells; assay type: cell-based
Protocol: SJSA-1 cells were seeded into a 96-well plate (2,000 cells/well) and incubated overnight at 37° C. After washing twice in PBS, cells are incubated with peptide or Nutlin-3a (Santa Cruz Biotechnology, Santa Cruz, Calif.) in Opti-MEM (Invitrogen, Carlsbad, Calif.) for 24 hours. Cell viability was then assayed using CellTiter-Glo (Promega, Madison, Wis.) according to the manufacturer's protocol. Luminescence measurements were taken on a SpectraMax M5 plate reader (Molecular Devices, Sunnyvale, Calif.).
Previously it has been shown that the efficacy with which hydrocarbon-stapled peptides reach the cytosol correlates with their efficacy in cell-based assays (LaRochelle et al., J. Am. Chem. Soc., 2015, 137, 2536-2541). To examine whether the biological activity of these penta-arg peptides correlated with how efficiently they accessed the cytosol, cell viability assays were performed using N-acetylated versions of the peptides and hDM2-overexpressing SJSA-1 cells (FIG. 4 and FIG. 5).

HeLa cells = conditions: cited from earlier work
[2] = system: hDM2-overexpressing SJSA-1 cells; conditions: literature values (Bernal et al. 2007; 2010); read-out: previously reported EC50, SJSA-1 cell viability; cited from earlier work

Compound	EC50 ([1]; 24 h) [µM]	other results
CC(=O)N[C@@H](CC(C)C)C(=O)N[C@@H](CO)C(=O)N[C@@H](CCC(N)=O)C(=O)N[C@@H](CCC(=O)O)C(=O)N[C@H](C(=O)N[C@@H](C)C(=O)N[C@]1(C)CCCCCCC=CCCC[C@@](C)(C(=O)N[C@@H](CCCNC(=N)N)C(=O)N[C@@H](CCCNC(=N)N)C(N)=O)NC(=O)[C@H](CC(C)C)NC(=O)[C@H](CCCNC(=N)N)NC(=O)[C@H](CCCNC(=N)N)NC(=O)[C@H](Cc2c[nH]c3ccccc23)NC(=O)[C@H](CC(C)C)NC(=O)[C@H](CCCNC(=N)N)NC1=O)[C@@H](C)O [BP1.6F19A^Ac, Ac-LSQETAR8RLWRRLS5RR-NH2] (Ac-LSQETA[R8]RLWRRL[S5]RR-NH2; staple 7-14)	4.8	–
Ac-LSQETFR8DLWKLLS5EN-NH2 (Ac-LSQETF[R8]DLWKLL[S5]EN-NH2; staple 7-14) [SAH-p53-4, N-acetylated SAH-p53-4, reference compound]	–	ability to breach the plasma membrane as judged by flow cytometry (HeLa cells): fails to effectively breach the plasma membrane; effect on SJSA-1 cell viability (in words) ([1]; concentrations as high as 60 μM, 24 hours): no decrease in viability
CC(=O)N[C@@H](CCCNC(=N)N)C(=O)N[C@@H](CO)C(=O)N[C@@H](CCC(N)=O)C(=O)N[C@@H](CCCNC(=N)N)C(=O)N[C@@H](CCCNC(=N)N)C(=O)N[C@@H](Cc1ccccc1)C(=O)N[C@]1(C)CCCCCCC=CCCC[C@@](C)(C(=O)N[C@@H](CCC(=O)O)C(=O)N[C@@H](CC(N)=O)C(N)=O)NC(=O)[C@H](CC(C)C)NC(=O)[C@H](CC(C)C)NC(=O)[C@H](CCCNC(=N)N)NC(=O)[C@H](Cc2c[nH]c3ccccc23)NC(=O)[C@H](CC(=O)O)NC(=O)[C@H](CCCNC(=N)N)NC1=O [BP1.2^Ac, Ac-RSQRRFR8RDWRLLS5EN-NH2] (Ac-RSQRRF[R8]RDWRLL[S5]EN-NH2; staple 7-14)	1.9	–
CC(=O)N[C@@H](CCCNC(=N)N)C(=O)N[C@@H](CO)C(=O)N[C@@H](CCC(N)=O)C(=O)N[C@@H](CCC(=O)O)C(=O)N[C@@H](CCCNC(=N)N)C(=O)N[C@@H](Cc1ccccc1)C(=O)N[C@]1(C)CCCCCCC=CCCC[C@@](C)(C(=O)N[C@@H](CCCNC(=N)N)C(=O)N[C@@H](CCCNC(=N)N)C(N)=O)NC(=O)[C@H](CC(C)C)NC(=O)[C@H](CCCNC(=N)N)NC(=O)[C@H](CCCCN)NC(=O)[C@H](Cc2c[nH]c3ccccc23)NC(=O)[C@H](CC(C)C)NC(=O)[C@H](CC(=O)O)NC1=O [BP1.4^Ac, Ac-RSQERFR8DLWKRLS5RR-NH2] (Ac-RSQERF[R8]DLWKRL[S5]RR-NH2; staple 7-14)	7.7	–
CC(=O)N[C@@H](CC(C)C)C(=O)N[C@@H](CO)C(=O)N[C@@H](CCC(N)=O)C(=O)N[C@@H](CCC(=O)O)C(=O)N[C@H](C(=O)N[C@@H](Cc1ccccc1)C(=O)N[C@]1(C)CCCCCCC=CCCC[C@@](C)(C(=O)N[C@@H](CCCNC(=N)N)C(=O)N[C@@H](CCCNC(=N)N)C(N)=O)NC(=O)[C@H](CC(C)C)NC(=O)[C@H](CCCNC(=N)N)NC(=O)[C@H](CCCNC(=N)N)NC(=O)[C@H](Cc2c[nH]c3ccccc23)NC(=O)[C@H](CC(C)C)NC(=O)[C@H](CCCNC(=N)N)NC1=O)[C@@H](C)O [BP1.6^Ac, Ac-LSQETFR8RLWRRLS5RR-NH2] (Ac-LSQETF[R8]RLWRRL[S5]RR-NH2; staple 7-14)	1.9	–
COc1ccc(C2=N[C@@H](c3ccc(Cl)cc3)[C@@H](c3ccc(Cl)cc3)N2C(=O)N2CCNC(=O)C2)c(OC(C)C)c1 [Nutlin-3a, reference compound]	–	EC50 [2]: ~7 µM; EC50 ([1]; 24 hours in Opti-MEM, N-acetylated peptides, read-out: EC50, decrease in SJSA-1 cell viability): 22.8 µM
CC(=O)N[C@@H](CC(C)C)C(=O)N[C@@H](CCCNC(=N)N)C(=O)N[C@@H](CCCNC(=N)N)C(=O)N[C@@H](CCC(=O)O)C(=O)N[C@H](C(=O)N[C@@H](Cc1ccccc1)C(=O)N[C@]1(C)CCCCCCC=CCCC[C@@](C)(C(=O)N[C@@H](CCCNC(=N)N)C(=O)N[C@@H](CC(N)=O)C(N)=O)NC(=O)[C@H](CC(C)C)NC(=O)[C@H](CCCNC(=N)N)NC(=O)[C@H](CCCCN)NC(=O)[C@H](Cc2c[nH]c3ccccc23)NC(=O)[C@H](CCCNC(=N)N)NC(=O)[C@H](CC(=O)O)NC1=O)[C@@H](C)O [BP1.5^Ac, Ac-LRRETFR8DRWKRLS5RN-NH2] (Ac-LRRETF[R8]DRWKRL[S5]RN-NH2; staple 7-14)	7.7	–
